From patent US20230167114A1, “MACROCYCLIC JAK INHIBITOR AND USE THEREOF” (Biopolar Hongye (Guangdong) Pharmaceutical Co., Ltd., priority 2020, published 2023)

Experiments:
Assay type in all cases: biochemical
JAK1 = JAK1 (Homo sapiens, UniProt P23458); assay: JAK kinase activity, homogeneous time-resolved fluorescence (JAK1 reaction system); conditions: ATP 2 μM, JAK1 protein 0.2 ng/μL; read-out: JAK 1 activity
Procedure: (§1) The activity measurement method of JAK kinase was to use homogeneous time-resolved fluorescence technique. The reaction was performed in 384 shallow well plates with a total reaction volume of 10 μL. The mixture of kinase protein, compound, ATP and substrate was carried out in a reaction buffer of 50 mM Hepes (pH7.0), NaN3 0.02%, BSA 0.01%, 0.1 mM orthocanadate, 5 mM MgCl2, and 1 mM DTT. After reacting for 1 hour, antibody capable of recognizing substrate phosphorylation and dye XL-615 and detection buffer (Cisbio) containing EDTA were added to the system. The reaction signal of kinase was detected by PE company's porous plate detector. The parameter settings were excitation light at 320 nm, emission light at 615 nm and 665 nm. The activity of JAK is indirectly reflected by the signal ratio of 665 nm and 615 nm. In the reaction, the background well without enzyme and the total enzyme activity well without compound were set.
(§2) The IC50 value of the compound inhibiting protein was obtained by the formula: Y=100/(1+10^((Log IC50−X)*HillSlope)).
In JAK1 reaction system, the concentration of ATP was 2 μM, and the concentration of JAK1 protein was 0.2 ng/μL.

TYK2 = TYK2 (Homo sapiens, UniProt P29597); assay: JAK kinase activity, homogeneous time-resolved fluorescence (TYK2 reaction system); conditions: ATP 2 μM, TYK2 protein 0.2 ng/μL; read-out: TYK 2 activity
Chain of TYK2 (P29597 whole entry): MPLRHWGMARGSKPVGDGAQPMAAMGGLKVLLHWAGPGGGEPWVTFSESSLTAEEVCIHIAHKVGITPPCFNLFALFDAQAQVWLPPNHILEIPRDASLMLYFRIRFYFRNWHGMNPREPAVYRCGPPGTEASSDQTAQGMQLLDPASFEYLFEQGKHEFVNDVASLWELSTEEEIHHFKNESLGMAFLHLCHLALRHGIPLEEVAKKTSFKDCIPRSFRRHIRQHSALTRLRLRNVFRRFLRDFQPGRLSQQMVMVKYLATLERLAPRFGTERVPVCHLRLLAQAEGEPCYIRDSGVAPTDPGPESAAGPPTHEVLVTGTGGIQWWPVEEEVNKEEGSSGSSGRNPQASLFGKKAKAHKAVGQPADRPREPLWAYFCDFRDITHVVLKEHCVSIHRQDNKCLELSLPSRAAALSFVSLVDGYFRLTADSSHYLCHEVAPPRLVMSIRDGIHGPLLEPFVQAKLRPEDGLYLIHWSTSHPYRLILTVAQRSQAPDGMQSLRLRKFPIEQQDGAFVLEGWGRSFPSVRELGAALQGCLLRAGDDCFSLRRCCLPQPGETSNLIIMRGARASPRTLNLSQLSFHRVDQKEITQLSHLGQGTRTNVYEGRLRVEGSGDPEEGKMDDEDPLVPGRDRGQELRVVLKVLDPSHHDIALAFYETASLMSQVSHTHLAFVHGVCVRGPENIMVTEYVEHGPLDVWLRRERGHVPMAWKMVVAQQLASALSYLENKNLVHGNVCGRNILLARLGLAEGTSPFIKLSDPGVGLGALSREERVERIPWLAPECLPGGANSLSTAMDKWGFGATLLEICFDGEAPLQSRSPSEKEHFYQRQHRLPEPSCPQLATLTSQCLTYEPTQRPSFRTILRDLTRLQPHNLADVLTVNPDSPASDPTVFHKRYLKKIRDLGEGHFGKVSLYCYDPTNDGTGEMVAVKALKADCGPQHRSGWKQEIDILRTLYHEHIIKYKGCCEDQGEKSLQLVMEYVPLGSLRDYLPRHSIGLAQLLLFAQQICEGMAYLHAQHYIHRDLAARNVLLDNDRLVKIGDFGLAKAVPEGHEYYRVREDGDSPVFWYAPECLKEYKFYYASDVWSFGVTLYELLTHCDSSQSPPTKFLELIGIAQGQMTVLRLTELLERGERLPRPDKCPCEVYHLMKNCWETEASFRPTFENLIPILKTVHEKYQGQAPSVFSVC
Procedure: as §1, §2
In TYK2 reaction system, the concentration of ATP was 2 μM and the concentration of TYK2 protein was 0.2 ng/μL.

JAK3 = biological target: T1, JAK3 (Homo sapiens, UniProt P52333); assay: JAK kinase activity, homogeneous time-resolved fluorescence (JAK3 reaction system); conditions: ATP 2 μM, JAK3 protein 0.04 ng/μL; read-out: JAK 3 activity
T1 sequence (P52333 1-1124): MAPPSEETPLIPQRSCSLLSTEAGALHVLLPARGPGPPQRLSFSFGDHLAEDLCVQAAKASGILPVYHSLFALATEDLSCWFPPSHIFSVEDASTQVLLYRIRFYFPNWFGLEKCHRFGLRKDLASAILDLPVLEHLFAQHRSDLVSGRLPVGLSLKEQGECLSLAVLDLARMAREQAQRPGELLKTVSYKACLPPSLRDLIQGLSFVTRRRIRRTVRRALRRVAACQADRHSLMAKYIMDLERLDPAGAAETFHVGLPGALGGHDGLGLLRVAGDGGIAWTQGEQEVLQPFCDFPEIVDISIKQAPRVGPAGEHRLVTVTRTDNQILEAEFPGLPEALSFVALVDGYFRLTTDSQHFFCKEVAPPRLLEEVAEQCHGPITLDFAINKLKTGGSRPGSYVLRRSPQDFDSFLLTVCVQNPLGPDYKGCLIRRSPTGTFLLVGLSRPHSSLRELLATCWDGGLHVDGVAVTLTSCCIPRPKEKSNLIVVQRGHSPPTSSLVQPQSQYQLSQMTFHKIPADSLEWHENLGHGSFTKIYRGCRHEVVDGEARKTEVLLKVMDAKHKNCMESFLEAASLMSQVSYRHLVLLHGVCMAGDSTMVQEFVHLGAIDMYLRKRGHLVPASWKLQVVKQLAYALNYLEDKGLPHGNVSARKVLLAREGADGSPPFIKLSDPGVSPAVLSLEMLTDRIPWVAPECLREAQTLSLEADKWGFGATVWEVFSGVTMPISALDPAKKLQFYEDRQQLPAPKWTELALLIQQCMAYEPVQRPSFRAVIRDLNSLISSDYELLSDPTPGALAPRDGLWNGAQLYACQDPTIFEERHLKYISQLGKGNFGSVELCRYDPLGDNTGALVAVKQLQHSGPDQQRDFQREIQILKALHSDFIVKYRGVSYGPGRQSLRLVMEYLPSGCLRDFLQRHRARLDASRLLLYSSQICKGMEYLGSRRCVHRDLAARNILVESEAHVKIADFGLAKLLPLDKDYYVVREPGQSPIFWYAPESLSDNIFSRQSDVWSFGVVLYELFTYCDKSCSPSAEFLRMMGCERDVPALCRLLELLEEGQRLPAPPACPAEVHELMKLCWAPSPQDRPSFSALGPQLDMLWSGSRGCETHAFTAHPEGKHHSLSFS
Procedure: as §1, §2
In JAK3 reaction system, the concentration of ATP was 2 μM, and the concentration of JAK3 protein was 0.04 ng/μL.

JAK2 = JAK2 (Homo sapiens, UniProt O60674); assay: JAK kinase activity, homogeneous time-resolved fluorescence (JAK2 reaction system); conditions: ATP 2 μM, JAK2 protein 0.01 ng/μL
Chain of JAK2 (O60674 whole entry): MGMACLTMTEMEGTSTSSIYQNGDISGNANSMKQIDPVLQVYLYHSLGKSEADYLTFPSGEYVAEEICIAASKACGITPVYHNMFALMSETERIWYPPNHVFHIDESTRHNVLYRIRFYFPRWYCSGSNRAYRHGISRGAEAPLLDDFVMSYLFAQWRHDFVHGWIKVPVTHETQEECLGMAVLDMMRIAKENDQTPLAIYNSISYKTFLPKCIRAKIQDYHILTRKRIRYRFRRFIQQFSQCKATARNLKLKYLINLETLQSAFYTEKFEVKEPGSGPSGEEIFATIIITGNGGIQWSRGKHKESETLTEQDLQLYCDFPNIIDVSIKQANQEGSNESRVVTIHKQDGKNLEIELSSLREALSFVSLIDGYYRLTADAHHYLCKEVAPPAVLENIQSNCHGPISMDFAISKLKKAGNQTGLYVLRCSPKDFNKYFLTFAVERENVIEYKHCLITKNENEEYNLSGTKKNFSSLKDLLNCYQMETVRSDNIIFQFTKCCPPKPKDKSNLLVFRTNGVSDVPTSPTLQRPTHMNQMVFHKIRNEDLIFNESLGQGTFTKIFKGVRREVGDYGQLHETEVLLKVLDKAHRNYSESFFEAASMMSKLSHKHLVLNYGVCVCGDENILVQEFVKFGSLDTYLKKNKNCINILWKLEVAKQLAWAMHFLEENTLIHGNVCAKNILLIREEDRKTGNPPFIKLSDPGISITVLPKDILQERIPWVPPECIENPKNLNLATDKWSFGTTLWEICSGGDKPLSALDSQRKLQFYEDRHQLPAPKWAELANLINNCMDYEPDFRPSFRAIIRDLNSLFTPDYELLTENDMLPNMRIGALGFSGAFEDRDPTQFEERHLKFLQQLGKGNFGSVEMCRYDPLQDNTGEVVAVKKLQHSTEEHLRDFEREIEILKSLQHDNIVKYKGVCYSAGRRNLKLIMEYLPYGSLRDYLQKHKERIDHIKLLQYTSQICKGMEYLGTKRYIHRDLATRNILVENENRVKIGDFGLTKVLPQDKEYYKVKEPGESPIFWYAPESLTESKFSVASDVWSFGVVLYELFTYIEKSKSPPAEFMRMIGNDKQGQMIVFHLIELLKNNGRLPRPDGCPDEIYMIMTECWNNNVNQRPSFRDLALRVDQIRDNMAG
Procedure: as §1, §2
In JAK2 reaction system, the concentration of ATP was 2 μM, and the concentration of JAK2 protein was 0.01 ng/μL.

Chain of JAK1 (P23458 whole entry): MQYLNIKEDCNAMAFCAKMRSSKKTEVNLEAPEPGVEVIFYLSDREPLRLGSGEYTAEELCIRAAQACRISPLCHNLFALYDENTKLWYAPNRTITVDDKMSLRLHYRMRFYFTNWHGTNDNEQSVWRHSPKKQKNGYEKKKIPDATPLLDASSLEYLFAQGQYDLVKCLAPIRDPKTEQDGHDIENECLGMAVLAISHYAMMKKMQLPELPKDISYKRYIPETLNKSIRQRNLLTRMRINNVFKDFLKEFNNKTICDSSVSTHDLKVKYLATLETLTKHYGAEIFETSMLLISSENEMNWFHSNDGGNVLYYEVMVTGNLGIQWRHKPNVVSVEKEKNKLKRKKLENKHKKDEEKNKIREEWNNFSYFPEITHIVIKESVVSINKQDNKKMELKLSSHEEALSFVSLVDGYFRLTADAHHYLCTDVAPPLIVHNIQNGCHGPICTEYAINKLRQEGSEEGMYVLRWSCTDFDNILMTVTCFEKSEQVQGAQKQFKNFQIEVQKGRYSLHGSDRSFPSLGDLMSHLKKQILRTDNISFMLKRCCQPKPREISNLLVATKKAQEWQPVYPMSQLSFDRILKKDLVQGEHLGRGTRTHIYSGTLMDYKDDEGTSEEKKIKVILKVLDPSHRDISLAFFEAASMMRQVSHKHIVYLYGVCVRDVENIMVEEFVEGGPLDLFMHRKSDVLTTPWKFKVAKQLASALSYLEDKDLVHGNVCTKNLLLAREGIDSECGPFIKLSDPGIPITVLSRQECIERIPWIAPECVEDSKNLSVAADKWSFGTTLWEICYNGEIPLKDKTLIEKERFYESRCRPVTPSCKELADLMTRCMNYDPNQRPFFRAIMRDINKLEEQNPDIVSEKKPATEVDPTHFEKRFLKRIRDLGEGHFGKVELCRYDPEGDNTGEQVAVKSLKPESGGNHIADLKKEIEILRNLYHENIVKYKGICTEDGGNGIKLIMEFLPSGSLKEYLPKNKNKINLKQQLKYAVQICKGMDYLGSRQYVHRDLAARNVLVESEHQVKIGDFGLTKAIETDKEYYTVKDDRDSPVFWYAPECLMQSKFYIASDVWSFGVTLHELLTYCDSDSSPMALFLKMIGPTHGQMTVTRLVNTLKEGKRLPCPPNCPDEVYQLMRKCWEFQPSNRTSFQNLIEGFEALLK

SMILES	IC50 (JAK1)	IC50 (TYK2)	IC50 (JAK3)	IC50 (JAK2)
COc1cc2ccc1C(=O)NCCCCCNc1nc(ncc1C)Nc1cc-2cnc1F [Compound 8, 2^6-fluoro-1^3-methoxy-4^5-methyl-3,5,11-triaza-4(2,4)-pyrimidina-2(3,5)-pyridina-1(1,4)-benzenacyclododecaphan-12-one]	101 to 1000 nM	> 10000 nM	1000 to 10000 nM	1000 to 10000 nM
Cc1cnc2nc1NCCCCCCNC(=O)c1ccc(cc1F)-c1cnc(F)c(c1)N2 [Compound 13, I^3,2^6-difluoro-4^5-methyl-3,5,12-triaza-4(2,4)-pyrimidina-2(3,5)-pyridina-1(1,4)-benzenacyclotridecaphan-13-one]	101 to 1000 nM	> 10000 nM	1000 to 10000 nM	101 to 1000 nM
Cc1cnc2nc1NCCCCCNC(=O)c1ccc(cc1Cl)-c1cnc(F)c(c1)N2 [Compound 14, 1^3-chloro-2^6-fluoro-4^5-methyl-3,5,11-triaza-4(2,4)-pyrimidina-2(3,5)-pyridina-1(1,4)-benzenacyclododecaphan-12-one]	101 to 1000 nM	1000 to 10000 nM	1000 to 10000 nM	101 to 1000 nM
O=C1NCCCCCNc2nc(ncc2F)Nc2cc(cnc2F)-c2ccc1cc2 [Compound 4, 2^6,4^5-difluoro-3,5,11-triaza-4(2,4)-pyrimidina-2(3,5)-pyridina-1(1,4)-benzenacyclododecaphan-12-one]	1000 to 10000 nM	> 10000 nM	1000 to 10000 nM	101 to 1000 nM
Cc1cnc2nc1Nc1cccc(c1)CCCNC(=O)c1ccc(cc1)-c1cnc(F)c(c1)N2 [Compound 17, 2^6-fluoro-4^5-methyl-3,5,10-triaza-4(2,4)-pyrimidina-2(3,5)-pyridina-1(1,4),6(1,3)-dibenzenacycloundecaphan-11-one]	< 10 nM	11 to 100 nM	11 to 100 nM	< 10 nM
Cc1cnc2nc1NCCCCCNC(=O)c1ccc(cc1C(=O)Nc1ccccc1)-c1cnc(F)c(c1)N2 [Compound 42, 2^6-fluoro-4^5-methyl-12-oxo-N-phenyl-3,5,11-triaza-4(2,4)-pyrimidina-2(3,5)-pyridina-1(1,4)-benzenacyclododecaphane-1^3-formamide]	1000 to 10000 nM	> 10000 nM	1000 to 10000 nM	1000 to 10000 nM
COc1cc2cc(c1)Nc1nc(ncc1C)Nc1cc(cnc1F)-c1ccc(cc1)C(=O)NCC2 [Compound 47, 2^6-fluoro-6^5-methoxy-4^5-methyl-3,5,9-triaza-4(2,4)-pyrimidina-2(3,5)-pyridina-1(1,4),6(1,3)-dibenzenacyclodecaphan-10-one]	101 to 1000 nM	> 10000 nM	1000 to 10000 nM	101 to 1000 nM
CC(=O)Nc1cc2ccc1C(=O)NCCCCCNc1nc(ncc1C)Nc1cc-2cnc1F [Compound 43, N-(2^6-fluoro-4^5-methyl-12-oxo-3,5,11-triaza-4(2,4)-pyrimidina-2(3,5)-pyridina-1(l,4)-benzenacyclododecaphane-1^3-yl) acetamide]	101 to 1000 nM	> 10000 nM	101 to 1000 nM	101 to 1000 nM
Cc1cnc2nc1Nc1cc(ccc1F)CCNC(=O)c1ccc(cc1S(C)(=O)=O)-c1cnc(F)c(c1)N2 [Compound 29, 2^6,6^6-difluoro-4^5-methyl-1^3(methylsulfonyl)-3,5,9-triaza-4(2,4)-pyrimidina-2(3,5)-pyridina-1(1,4),6(1,3)-dibenzenacyclodecaphan-10-one]	11 to 100 nM	> 10000 nM	1000 to 10000 nM	101 to 1000 nM
Cc1cnc2nc1Nc1ccccc1CCCNC(=O)c1ccc(cc1F)-c1cnc(F)c(c1)N2 [Compound 32, 1^3,2^6-difluoro-4^5-methyl-3,5,10-triaza-4(2,4)-pyridina-1(5,2),2(3,5)-dipyridina-6(1,2)-benzenacycloundecaphan-11-one]	11 to 100 nM	1000 to 10000 nM	101 to 1000 nM	11 to 100 nM
Cc1cnc2nc1NCCCCCNC(=O)c1ccc(cc1C(=O)NCc1ccccc1)-c1cnc(F)c(c1)N2 [Compound 41, N-benzyl-2^6-fluoro-4^5-methyl-12-oxo-3,5,11-triaza-4(2,4)-pyrimidina-2(3,5)-pyridina-1(1,4)-benzenacyclododecaphane-1^3-formamide]	1000 to 10000 nM	> 10000 nM	1000 to 10000 nM	1000 to 10000 nM
Cc1cnc2nc1Nc1cccc(c1)CCCNC(=O)c1ccc(cc1F)-c1cnc(F)c(c1)N2 [Compound 23, 1^3,2^6-difluoro-4^5-methyl-3,5,10-triaza-4(2,4)-pyrimidina-2(3,5)-pyridina-1(1,4),6(1,3)-dibenzenacycloundecaphan-11-one]	< 10 nM	101 to 1000 nM	101 to 1000 nM	< 10 nM
Cc1cnc2nc1NCCCCCNC(=O)c1ccc(c(S(C)(=O)=O)c1)-c1cnc(F)c(c1)N2 [Compound 26, 2^6-fluoro-4^5-methyl-1^2-(methylsulfonyl)-3,5,11-triaza-4(2,4)-pyrimidina-2(3,5)-pyridina-1(1,4)-benzenacyclododecaphan-12-one]	1000 to 10000 nM	> 10000 nM	1000 to 10000 nM	1000 to 10000 nM
Cc1cnc2nc1Nc1cccc(c1)CCCNC(=O)c1c(F)cc(cc1F)-c1cnc(F)c(c1)N2 [Compound 31, 1^3,1^5,2^6-trifluoro-4^5-methyl-3,5,10-triaza-4(2,4)-pyrimidina-2(3,5)-pyridina-1(1,4),6(1,3)-dibenzenacycloundecaphan-11-one]	101 to 1000 nM	> 10000 nM	1000 to 10000 nM	101 to 1000 nM
Cc1cnc2nc1NCCCCCCC(=O)N1CCN(CC1)c1cnc(F)c(c1)N2 [Compound 2, 2^6-fluoro-4^5-methyl-3,5-diaza-4(2,4)-pyrimidina-1(1,4)-piperazina-2(3,5)-pyridinacyclododecaphan-12-one]	101 to 1000 nM	1000 to 10000 nM	1000 to 10000 nM	101 to 1000 nM
Cc1cnc2nc1NCCCCCNC(=O)c1ccc(cc1)-c1cnc(F)c(c1)N2 [Compound 1, 2^6-fluoro-4^5-methyl-3,5,11-triaza-4 (2,4)-pyrimidina-2(3,5)-pyridina-1(1,4)-benzenacyclododecaphan-12-one]	101 to 1000 nM	> 10000 nM	1000 to 10000 nM	1000 to 10000 nM
Cc1cnc2nc1Nc1cccc(c1)COCCCC(=O)N1CCN(CC1)c1cnc(F)c(c1)N2 [Compound 15, 2^6-fluoro-4^5-methyl-8-oxa-3,5-diaza-4(2,4)-pyrimidina-1(1,4)-piperazina-2(3,5)-pyridina-6(1,3)-benzenacyclododecaphan-12-one]	11 to 100 nM	1000 to 10000 nM	101 to 1000 nM	101 to 1000 nM
Cc1cnc2nc1Nc1cccc(c1)CCNC(=O)c1ccc(cc1F)-c1cnc(F)c(c1)N2 [Compound 28, 1^3,2^6-difluoro-4^5-methyl-3,5,9-triaza-4(2,4)-pyrimidina-2(3,5)-pyridina-1(1,4),6(1,3)-dibenzenacyclodecaphan-10-one]	< 10 nM	1000 to 10000 nM	11 to 100 nM	11 to 100 nM
